Results reported in patent publication US9518078B2, “Disaccharide synthetic lipid compounds and uses thereof” (AVANTI POLAR LIPIDS, INC., priority 2012, dated 2016).
Values joined by “and” are separate entries in the source; they are usually repeats but may differ in a detail not shown here. Identical values can stand only once.

Tests used:
human TLR-4 receptor = target: T1, human TLR-4 receptor (Homo sapiens, UniProt O00206+Q9Y6Y9); test: NFκB-inducible secreted alkaline phosphatase reporter in HEK-293 cells over-expressing human TLR-4; assay type: cell-based; settings: hTLR-4 HEK-293, 18 h
T1 construct: expressed in transfected cells; host or cells: HEK-293
Method: (§1) HEK-293 cell lines engineered to functionally over-express human or murine TLR-4 receptor were utilized in the experiments below. These cells also contain a reporter gene (a secreted alkaline phosphatase) under the control of a NFκB inducible promoter. TLR-4 activation results are given as optical density (OD) values after 18 hours stimulation of the designated HEK-293 cell lines.
(§2) Samples and controls are tested in duplicate on recombinant HEK-293 cell lines. The negative controls for the assay were the parental HEK-293 cell lines transfected only with the reporter gene. Negative control cells were stimulated with TNF-α, an inducer of NFκB activity. The positive controls for the assay were HEK-293 cells transfected with human TLR-4 (hTLR-4) or mouse TLR-4 (mTLR-4) along with the reporter construct and activated with LPS 0111 (obtained from E. coli 0111:B4 strain) from 100 ng/ml to 0.01 ng/ml or with LPS K12 (obtained from E. coli K12 strain) from 100 ng/ml to 0.01 ng/ml.
(§3) Another synthetic disaccharide lipid compound used in this assay in an independent experiment, was the compound of the structure XV (referred to herein as MPLA-C). […] Test compounds were used at the following concentrations: 5.7 μM/570 nM/171 nM/57 nM/17 nM/5.7 nM/well to stimulate in duplicate hTLR4 and mTLR4 expressing cell lines.

[1] = system: murine parental cell line (mTLR); test: Negative control: murine parental HEK-293 cell line transfected only with the reporter gene; assay type: cell-based, mouse; settings: parental HEK-293, 18 h
Method: as §1, §2
Another synthetic disaccharide lipid compound used in this assay in an independent experiment was the compound of the structure X (referred to herein as MPLA-D). […] Test compounds were used at the following concentrations: 5.71 μM/570 nM/171 nM/57 nM/17 nM/5.7 nM/well to stimulate in duplicate mTLR4 expressing cell lines.
as §3

T1 sequence (O00206 24-839): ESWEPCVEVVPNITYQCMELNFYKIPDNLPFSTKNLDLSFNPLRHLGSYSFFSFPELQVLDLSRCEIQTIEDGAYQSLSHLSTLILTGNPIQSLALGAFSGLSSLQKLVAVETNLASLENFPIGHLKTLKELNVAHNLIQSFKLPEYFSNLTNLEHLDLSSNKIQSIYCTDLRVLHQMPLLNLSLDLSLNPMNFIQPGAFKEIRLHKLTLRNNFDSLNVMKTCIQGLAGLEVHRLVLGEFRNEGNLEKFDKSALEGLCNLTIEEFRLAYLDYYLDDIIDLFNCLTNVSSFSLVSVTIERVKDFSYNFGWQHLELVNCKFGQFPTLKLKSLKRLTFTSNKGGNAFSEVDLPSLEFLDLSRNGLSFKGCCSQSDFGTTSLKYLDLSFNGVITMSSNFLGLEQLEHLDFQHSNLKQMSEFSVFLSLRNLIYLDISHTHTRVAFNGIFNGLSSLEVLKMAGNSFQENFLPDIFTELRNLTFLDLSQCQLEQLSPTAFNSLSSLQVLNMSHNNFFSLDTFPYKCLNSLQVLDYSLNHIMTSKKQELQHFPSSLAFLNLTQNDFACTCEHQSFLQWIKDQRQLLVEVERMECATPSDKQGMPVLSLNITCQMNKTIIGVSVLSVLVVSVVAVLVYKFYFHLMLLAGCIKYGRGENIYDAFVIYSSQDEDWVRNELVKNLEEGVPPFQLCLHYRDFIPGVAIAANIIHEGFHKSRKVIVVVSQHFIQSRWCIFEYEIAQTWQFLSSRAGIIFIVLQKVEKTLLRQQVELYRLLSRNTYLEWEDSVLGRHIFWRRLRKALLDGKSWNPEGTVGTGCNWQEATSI
T1 sequence (Q9Y6Y9 17-160 limits assumed): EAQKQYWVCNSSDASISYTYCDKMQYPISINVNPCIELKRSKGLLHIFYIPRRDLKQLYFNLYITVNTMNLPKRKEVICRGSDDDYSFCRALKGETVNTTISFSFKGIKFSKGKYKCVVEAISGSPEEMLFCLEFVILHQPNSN

TLR-4 activation, optical density (OD) (human TLR-4 receptor; 0.1 ng/ml): 0.275 OD
TLR-4 activation, optical density (OD) (human TLR-4 receptor; 0.3 ng/ml): 0.577 OD
TLR-4 activation, optical density (OD) (human TLR-4 receptor; 1 ng/ml): 0.899 OD
TLR-4 activation, optical density (OD) (human TLR-4 receptor; 3 ng/ml): 1.135 OD
TLR-4 activation, optical density (OD) (human TLR-4 receptor; 10 ng/ml): 1.262 OD
TLR-4 activation, optical density (OD) (human TLR-4 receptor; 30 ng/ml): 1.387 OD
Substance: TNF-α
NFκB reporter, optical density (OD), negative control cells ([1]; 0.3 ng/ml): 0.035 OD and 0.025 OD and 0.027 OD
NFκB reporter, optical density (OD), negative control cells ([1]; 3 ng/ml): 0.033 OD and 0.027 OD and 0.024 OD
NFκB reporter, optical density (OD), negative control cells ([1]; 30 ng/ml): 3.586 OD and 3.502 OD and 3.663 OD
